This is an account of results in US9132138B2, “Method for the treatment of multiple sclerosis” (CASI Pharmaceuticals, Inc., priority 2012, dated 2015).

Common to all, as to type: cell-based, C57/BL6 mice
The subject of series [1] is NF-κB. As to the kind of experiment: EMSA of T cell nuclear extracts. The note with it: 2ME2 50 μM, PMA/iono. The procedure: (§1) FIG. 4A, purified T cells pre-treated with 2ME2 (50 μM) were stimulated with PMA/iono for the indicated times. Whole cell lysates were subjected to immunoblotting to detect the indicated proteins. FIG. 4B, nuclear lysates were analyzed by EMSA to detect DNA binding to NF-κB or AP-1. FP, free probe. FIG. 4C, purified T cells or B cells were pre-treated with vehicle (−) or 50 μM 2ME2 (+) and were stimulated with PMA/iono for 30 or 60 minutes (left), or with anti-CD3/28 or anti-IgM/CD40 for 24 hours (right). Nuclear fractions of lymphocytes were analyzed by immunoblotting to detect nuclear translocation of NFATc1. Lamin A, nuclear protein loading control. NS; non-specific band. For FIGS. 4A-4C, data are representative of at least two independent experiments. FIG. 4D, stably transfected NFAT and NF-κB Jurkat luciferase reporter cell lines were preincubated with 2ME2 for 30 minutes, and stimulated via crosslinking of anti-CD3/28 antibodies with goat anti-mouse antibodies (GaM). 5 hours later, secreted luciferase activity indicates relative transcriptional activity. Data is reported as normalized luciferase activity and is representative of 3 independent experiments.
(§2) Nuclear extracts of T cells stimulated with PMA (10 ng/ml)+calcium ionophore A23187 (iono, Sigma) (50 ng/ml) for 30 or 60 minutes were prepared according to a standard protocol. […]
On the technique in general: In EMSA bound probe runs differently from free probe, usually more slowly.

Series [2] has as its system AP-1. The series is described as follows: EMSA of T cell nuclear extracts. The note with it: 2ME2 50 μM, PMA/iono. The procedure:
as §1, §2

For series [3], the target named is T1, GPER1 (Mus musculus, UniProt Q8BMP4).
T1 construct: Purified C57/BL6 CD4^+ T cells were preincubated with the GPER1 antagonist G15; endogenous in cells; host or cells: purified primary CD4+ T cells from C57/BL6 mice
T1 sequence (Q8BMP4 1-375): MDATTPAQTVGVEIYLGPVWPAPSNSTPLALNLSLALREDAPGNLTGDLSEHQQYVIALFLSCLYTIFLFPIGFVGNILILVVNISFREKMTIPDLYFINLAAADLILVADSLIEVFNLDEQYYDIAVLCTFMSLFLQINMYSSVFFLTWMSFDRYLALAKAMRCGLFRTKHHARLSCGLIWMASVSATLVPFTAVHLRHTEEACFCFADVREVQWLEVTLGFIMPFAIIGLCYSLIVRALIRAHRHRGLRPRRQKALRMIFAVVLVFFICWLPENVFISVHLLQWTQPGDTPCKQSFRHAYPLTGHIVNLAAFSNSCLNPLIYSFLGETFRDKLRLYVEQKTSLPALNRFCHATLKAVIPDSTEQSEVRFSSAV
As to the kind of experiment: GPER1 dependence: CD25/CD69 on CD4+ T cells with G15 or G1. The note with it: at 6 hours. The procedure:
FIGS. 6A and 6B show purified CD4^+ T cells that were pretreated with 2-50 μM 2ME2 and/or the GPER1 antagonist G15, and subsequently stimulated with anti-CD3/28 for 6 hours. Activation of CD4^+ T cells was assessed by CD25 and CD69 upregulation, measured by flow cytometry. US, unstimulated. Data is shown as mean±SD for triplicate determinations, and is representative of two separate experiments.
Purified C57/BL6 CD4^+ T cells were preincubated with the GPER1 antagonist G15 (100 nM, Tocris) and 2ME2 (0-50 μM), or the GPER1 agonist G1 (1-100 nM, Tocris) for 30 minutes, and activated with plate bound anti-CD3 plus soluble anti-CD28. 6 hours later, cells were harvested, stained with anti-CD4 and anti-CD25. CD25 expression was monitored on a HTS FACSCanto II (BD) and analyzed with FloJo (Treestar Inc).

The subject of series [4] is purified CD4^+ T cells. The series is described as follows: Proliferation of purified CD4+ T cells by 3H-thymidine incorporation. Conditions: 24 hours or 48 hours post-stimulation. On the procedure:
FIGS. 2A-2E, show proliferation and activation of T cells are inhibited by 2ME2. FIG. 2A, CD4^+ T cells were pre-treated with the indicated concentrations of 2ME2 and stimulated with plate-bound anti-CD3/28 or PMA/iono. Proliferation was assayed 24 hours (left) or 48 hours (right) later by 3H-thymidine incorporation. FIG. 2B, CD4^+ and CD8^+ T cells were stimulated with anti-CD3/28 in the presence of increasing concentrations of 2ME2. CD25 expression was assessed at 6 hours or 24 hours post-stimulation by flow cytometry. FIG. 2C, Quantification of CD25 expression in purified CD4^+ T cells pre-treated with increasing concentrations of 2ME2, and stimulated with anti CD3/28 or PMA/iono for 6 or 24 hours. […] Viability was determined 24 hours or 48 hours post-stimulation by flow cytometry. […] Proliferation was determined 24 hours or 48 hours later by 3H-thymidine incorporation. […]
Purified CD4^+ T cells were stimulated with plate-bound anti-CD3 (clone 2C11, BD, 10 ng/ml) plus anti-CD28 (clone 37.51, BD, 100 ng/ml). […] CD25 and CD69 expression was determined by flow cytometry (FACSCanto II, BD) and analyzed using FloJo software (Treestar Inc). Proliferation was assessed by 3H-thymidine incorporation. Viability and upregulation of cell surface markers on activated T cells were assessed by flow cytometry using Annexin V and propridium iodide. […]

In the case of `COc1cc2c(cc1O)CC[C@@H]1[C@@H]2CC[C@]2(C)[C@@H](O)CC[C@@H]12` [2ME2, 2-Methoxyestradiol], the “binding of NF-κB to DNA” value in series [1] is listed as “normal”. Besides, the “AP-1 binding to DNA” value in series [2] is listed as “modest increase”. Also, the cell viability entry in series [3] is reported as “Neither 2ME2, G1 nor G15 affected cell viability”. Besides, the “anti-CD3/28 or PMA+iono-dependent proliferation” value in series [4] was “dose-dependent inhibition”.
